Target: T1, Hsp90α (Homo sapiens, UniProt P07900)
T1 construct: gene HSP90AA1; recombinant human Hsp90α (SPP-776)
Experiment: SPR (Biacore […], immobilized Hsp90α)
Type: binding

Question: Which Kd does the source give for NS(=O)(=O)c1ccc(CCn2c(=S)[nH]c3ccccc3c2=O)cc1 [compound 1, 4-(2-(4-Oxo-2-thioxo-1,4-dihydroquinazolin-3(2H)-yl)ethyl)benzene sulfonamide] here?
Answer: Its Kd is 51 ± 2.9 nM.

Reference: paper PMC7248782, “Synergistic Anti Leukemia Effect of a Novel Hsp90 and a Pan Cyclin Dependent Kinase Inhibitors” (Molecules, 2020)
